Source: article PMC7949139, “The molecular basis of OH-PCB estrogen receptor activation” (The Journal of Biological Chemistry, 2021)
Where a chain is given by its changes, count along the chain named.

Key:
[1] = target: T1, spin-labeled SULT1E1, spin label attached at Cys residue 16 (C69S/G16C) (Homo sapiens, UniProt P49888, C69S/G16C); assay: Initial-rate studies, spin-labeled construct (label at Cys 16); type: biochemical; settings: spin label at Cys 16; parentheses = one SD; read-out: Ki OH-PCB1
T1 construct: E. coli codon-optimized SULT1E1 coding region inserted into the PreScission Protease cleavage site; His/GST/MBP triple tag (N, cleaved yes); made in house; host or cells: E. coli BL21(DE3)
T1 sequence (P49888 1-294 G16C/C69S): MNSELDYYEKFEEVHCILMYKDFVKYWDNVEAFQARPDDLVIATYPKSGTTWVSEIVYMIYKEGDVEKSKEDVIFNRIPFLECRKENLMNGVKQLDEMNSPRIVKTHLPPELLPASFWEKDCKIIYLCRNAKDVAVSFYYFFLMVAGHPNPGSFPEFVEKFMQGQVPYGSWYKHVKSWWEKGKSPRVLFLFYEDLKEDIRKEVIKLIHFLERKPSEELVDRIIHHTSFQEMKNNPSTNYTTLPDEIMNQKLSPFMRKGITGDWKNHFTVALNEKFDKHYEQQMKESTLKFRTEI
Description: Spin labels were attached to the SULT1E1 scaffold at Cys residues that were site-specifically incorporated via PCR-based mutagenesis. Prior to creating spin-label attachment constructs, reactive Cys was removed from the native scaffold. Only one of the four native SULT1E1 Cys (i.e., C69) reacts with DTNB ([39]), and mutagenic conversion of C69 to ser produced a stable, fully active non-DTNB-reactive scaffold. Five individual cys-attachment constructs were prepared from the C69S mutant (G16C, K25C, N150C, Q163C, and N233C). Mutants were labeled (see, Experimental procedures) and the initial rate parameters (kcat, Km and Ki) of each spin-labeled mutant were determined (see, Experimental procedures, Initial-Rate studies) to evaluate whether the catalytic integrity of the constructs had been compromised by the insertions and/or spin label attachments. […]
Labels (N-cyclohexylmale-imide or 3-maleimido-PROXYL) were added in 20-fold excess over reactive cysteine to a solution containing SULT1E1 construct (50 μM active sites), 0.50 mM PAP, and 50 mM KPO4 (pH 7.4), 25 °C ± 2 deg. […] The reactions were monitored by using DTNB to measure unreacted cysteine and were considered complete when >98% of the cysteine had reacted (∼3 h).
C. Reaction progress was monitored via the fluorescence change associated with 1-HP sulfonation (λex = 325 nm, λem = 370 nm ([51], [52])). […]

[2] = target: T2, SULT1E1 Y239A (Homo sapiens, UniProt P49888, Y239A); assay: Initial-rate studies (1-HP sulfonation; OH-PCB1 inhibition), Y239A mutant; type: biochemical
T2 construct: E. coli codon-optimized SULT1E1 coding region inserted into the PreScission Protease cleavage site; His/GST/MBP triple tag (N, cleaved yes); made in house; host or cells: E. coli BL21(DE3)
T2 sequence (P49888 1-294 Y239A): T1 sequence (P49888 1-294 G16C/C69S) with C16G, S69C, Y239A
Description: C. Reaction progress was monitored via the fluorescence change associated with 1-HP sulfonation (λex = 325 nm, λem = 370 nm ([51], [52])). Initial rates were measured during conversion to product of ≤5% of the concentration-limiting substrate consumed at the reaction endpoint. Velocities were determined in triplicate. Km and kcat were obtained by (1/v^4)-weighted least-squares fitting of the averaged data in double-reciprocal space (i.e., 1/v versus 1/[S]) ([66], [67]).
Inhibition studies were performed as described above except: 1-HP was fixed (2.0 μM, 100 × Km), OH-PCBs were added (0.20–20 × Ki), and SULT1E1 was 0.20 nM (active sites). Ki was determined by least-squares fitting to a noncompetitive inhibition model ([66], [67]).

[3] = test system: estrogen receptor (ER) activation in (-) SULT1E1 control Ishikawa cells; assay: Estrogen receptor activation (alkaline phosphatase activity), control strain; type: cell-based; settings: Homo sapiens, Control cell line, OH-PCB titration at 10 nM E2 (footnote a), NE = No Effect, read-out: Ligand EC50, ER activation
Description: (§1) pcDNA 3.1 constructs harboring either the SULT1E1 WT or double mutant (F75A/F80A) coding regions were generated using Gibson Assembly ([74]). The vectors were linearized using BGIII. Ishikawa cells were grown at 37 °C ± 2 deg. C in growth medium (MEM media containing 10% v/v FBS). At confluence, the cells were washed (3×) with PBS media before coating with an Opti-MEM solution containing a linearized construct (50 ng μg^−1) and lipofectamine (2.5 units ml^−1). After 24 h at 37 °C ± 2 deg. C, cells were washed (3×) with PBS before adding growth medium containing neomycin (400 μg ml^−1) to select transfectants. Selective growth medium was replenished every 48 h until single colonies could be isolated (∼3–6 weeks). Single colonies were transferred using trypsin digest (0.05%) to 12-well plates and grown at 37 °C ± 2 deg. C to confluence for further experimentation and storage.
(§2) Transfected Ishikawa cells were grown at 37 °C ± 2 deg. C to 60 to 70% confluency in MEM containing 10% v/v FBS. Cells were then transferred to 96-well tissue culture plates and grown at 37 °C ± 2 deg. C to 80% confluency in MEM containing 10% v/v charcoal filtered FBS. The plate was then washed with PBS and grown at 37 °C ± 2 deg. C for 24 h in MEM without FBS. Estradiol (0–3.0 μM) and OH-PCB (0–1.0 μM) solubilized in neat DMSO were added and cells were incubated at 37 °C ± 2 deg. C for 5 days. The final concentrations of DMSO were ≤0.10%. Cells were then washed twice with PBS before adding pNpp (5.0 mM) in PBS ([75]). Following incubation with pNpp for 3 h at 25 °C ± 2 deg. C, wells were read at 405 nm using a Synergy HT BioTek Plate Reader.

[4] = test system: estrogen receptor (ER) activation in Ishikawa cells expressing F75A/F80A SULT1E1; assay: cells; type: cell-based, human; settings: Homo sapiens, Ishikawa; F75A/F80A cell line; OH-PCB titration at 10 nM E2 (footnote a); NE = No Effect; read-out: Ligand EC50, ER activation
Description: as §1, §2

[5] = test system: estrogen receptor (ER) activation in Ishikawa cells expressing WT SULT1E1; assay: cells; type: cell-based, human; settings: Homo sapiens, Ishikawa; WT cell line; OH-PCB titration at 10 nM E2 (footnote a); parentheses = one SD; read-out: Ligand EC50, ER activation
Description: as §1, §2

With `Oc1ccc(-c2c(Cl)cccc2Cl)cc1` [OH-PCB1, 4ʹ-OH-2,6-dichlorobiphenol] the Ki [1] was 63 nM, the “Fold Effect = Ki OH-PCB1/Ki OH-PCB1 WT” value [2] was 5.7 and the Ki ([2]; noncompetitive inhibition model, parentheses = one SD) was 340 nM. The EC50 [3] was > 1000 nM, the EC50 [4] was > 1000 nM and the EC50 [5] was 38 nM.
